Results from ChEMBL document CHEMBL1201862, “PubChem BioAssay data set” (2004).
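Tested at 5 concentrations; 48 h exposure; 96-well plates; endpoints linearly interpolated, else capped at highest concentration. GI50: concentration for 50% inhibition of growth.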 The source made the active and inactive calls. No stated cut-off is given here; in the data, active = GI50 up to about 1.1 µM and inactive = higher.

Tests used:
Test in all cases: inhibition of tumour cell growth, NCI panel, 48 h
HT-29 = test system: HT-29
NCI-H460 = test system: NCI-H460
PC-3 = test system: PC-3
COLO 205 = test system: COLO 205
SR = test system: SR
U-251 = test system: U-251
K562 = test system: K562
SN12C = test system: SN12C
EKVX = test system: EKVX
HOP-92 = test system: HOP-92
786-0 = test system: 786-0
MOLT-4 = test system: MOLT-4
RXF 393 = test system: RXF 393
OVCAR-5 = test system: OVCAR-5
NCI/ADR-RES = test system: NCI/ADR-RES
SF-268 = test system: SF-268
SF-295 = test system: SF-295
T47D = test system: T47D
DU-145 = test system: DU-145
RPMI-8226 = test system: RPMI-8226
NCI-H226 = test system: NCI-H226
HCT-15 = test system: HCT-15
HOP-62 = test system: HOP-62
IGROV-1 = test system: IGROV-1
KM12 = test system: KM12
UO-31 = test system: UO-31
OVCAR-4 = test system: OVCAR-4
SF-539 = test system: SF-539
SNB-75 = test system: SNB-75
HCC 2998 = test system: HCC 2998
ACHN = test system: ACHN
MDA-MB-231 = test system: MDA-MB-231
HCT-116 = test system: HCT-116
SW-620 = test system: SW-620
MCF7 = test system: MCF7
CCRF-CEM = test system: CCRF-CEM
A498 = test system: A498
SK-OV-3 = test system: SK-OV-3
TK-10 = test system: TK-10
A549 = test system: A549
M14 = test system: M14
SK-MEL-5 = test system: SK-MEL-5
OVCAR-8 = test system: OVCAR-8
CAKI-1 = test system: CAKI-1
MDA-MB-435 = test system: MDA-MB-435
SNB-19 = test system: SNB-19
OVCAR-3 = test system: OVCAR-3
MDA-N = test system: MDA-N
NCI-H23 = test system: NCI-H23
SK-MEL-28 = test system: SK-MEL-28

Compound	GI50 (HT-29)	GI50 (PC-3)	GI50 (COLO 205)	GI50 (U-251)	GI50 (SN12C)	GI50 (EKVX)	GI50 (HOP-92)	GI50 (RXF 393)	GI50 (OVCAR-5)	GI50 (NCI/ADR-RES)	GI50 (SF-268)	GI50 (SF-295)	GI50 (DU-145)	GI50 (NCI-H226)	GI50 (HCT-15)	GI50 (IGROV-1)	GI50 (KM12)	GI50 (OVCAR-4)	GI50 (SF-539)	GI50 (SNB-75)	also measured
CC(=O)OC(C)c1cc2c(s1)C(=O)c1c(C(C)OC(C)=O)csc1C2=O (stereo unspecified)	2.21 µM (inactive)	2.3 µM (inactive)	1.91 µM (inactive)	1.18 µM (inactive)	0.682 µM (active)	1.74 µM (inactive)	3.29 µM (inactive)	1.31 µM (inactive)	1.97 µM (inactive)	1.26 µM (inactive)	3.01 µM (inactive)	1.28 µM (inactive)	0.586 µM (active)	1.37 µM (inactive)	1.58 µM	1.68 µM (inactive)	1.25 µM (inactive)	1.3 µM (inactive)	1.11 µM (active)	2.74 µM (inactive)	GI50 (NCI-H460): 0.5 µM (active); GI50 (SR): > 100 µM (inactive); GI50 (K562): 1.01 µM (active); GI50 (786-0): 1.89 µM (inactive); GI50 (MOLT-4): 1.95 µM (inactive); GI50 (T47D): 1.85 µM (inactive); GI50 (RPMI-8226): 1.43 µM (inactive); GI50 (HOP-62): 1.24 µM (inactive); GI50 (UO-31): 1.55 µM (inactive); GI50 (HCC 2998): 1.73 µM (inactive); GI50 (ACHN): 1.42 µM (inactive); GI50 (MDA-MB-231): 1.55 µM (inactive); GI50 (HCT-116): 1.66 µM (inactive); GI50 (SW-620): 0.0545 µM (active); GI50 (MCF7): 0.662 µM (active); GI50 (CCRF-CEM): 1.49 µM (inactive); GI50 (A498): 2.13 µM (inactive); GI50 (SK-OV-3): 3.6 µM (inactive); GI50 (TK-10): 2.29 µM (inactive); GI50 (A549): 1.97 µM (inactive)
CCC1=[N+]([O-])C(C)(C)NC1(C)C	> 10 µM (inactive)	> 10 µM (inactive)	> 10 µM (inactive)	> 10 µM (inactive)	> 10 µM (inactive)	> 10 µM (inactive)	> 10 µM (inactive)	> 10 µM (inactive)	> 10 µM (inactive)	> 10 µM (inactive)	> 10 µM (inactive)	> 10 µM (inactive)	> 10 µM (inactive)	4.95 µM (inactive)	> 10 µM	> 10 µM (inactive)	> 10 µM (inactive)	> 10 µM (inactive)	> 10 µM (inactive)	> 10 µM (inactive)	GI50 (M14): > 10 µM (inactive); GI50 (SK-MEL-5): > 10 µM (inactive); GI50 (OVCAR-8): > 10 µM (inactive); GI50 (CAKI-1): > 10 µM (inactive); GI50 (MDA-MB-435): > 10 µM (inactive); GI50 (SNB-19): > 10 µM (inactive); GI50 (OVCAR-3): > 10 µM (inactive); GI50 (ACHN): > 10 µM (inactive); GI50 (MDA-MB-231): > 10 µM (inactive); GI50 (MDA-N): > 10 µM (inactive); GI50 (HCT-116): > 10 µM (inactive); GI50 (SW-620): > 10 µM (inactive); GI50 (TK-10): > 10 µM (inactive); GI50 (A549): > 10 µM (inactive); GI50 (NCI-H23): > 10 µM (inactive); GI50 (SK-MEL-28): > 10 µM (inactive)
